Species on record: Rattus norvegicus
Assay: Open TG-GATES - Regimen: Daily Repeat
Type: toxicity, organism-based, Sprague-Dawley
Parameters: regimen Daily Repeat, gender Male, age 6 weeks
Details: in vivo, po, route gavage; for TP / gamma-GTP / ALP / ALT / AST / BUN / CRE / DBIL / GLC / IP / K / LDH / Na / PL / RALB / TBIL / TC / TG: tissue Plasma; for APTT / Bas / Eos / Fbg / Hb / Ht / Lym / MCH / MCHC / MCV / Mono / Neu / PT / Plat / RBC / Ret / WBC: tissue Blood; for KIDNEY_L / KIDNEY_R / KIDNEY_TOTAL: tissue Kidney; for LIVER: tissue Liver
[1] = 0 mg/kg, […], dose level Control, time 28 day
[2] = 45 mg/kg, 72 h, dose level Low, time 3 day
[3] = 45 mg/kg, […], dose level Low, time 7 day
[4] = 45 mg/kg, […], dose level Low, time 14 day
[5] = 45 mg/kg, […], dose level Low, time 28 day

## CC(CCc1ccccc1)NCC(O)c1ccc(O)c(C(N)=O)c1 (centres undefined) [LABETALOL]
[1]
  TP: 6.3 g/dL
  gamma-GTP: 1 IU/L
[2]
  TERMINAL_BW: 254.7 g
  APTT: 16 s
  Bas: 0%
  Eos: 0.8%
  Fbg: 279.4 mg/dL
  Hb: 13.6 g/dL
  Ht: 40.1%
  Lym: 77%
  MCH: 21.7 pg
  MCHC: 33.9%
  MCV: 64.1 fL
  Mono: 3%
  Neu: 18.6%
  PT: 13 s
  Plat: 116.6 x10_4/uL
  RBC: 626.8 x10_4/ul
  Ret: 6.8%
  WBC: 105.9 x10_2/uL
  KIDNEY_L: 1.1 g
  KIDNEY_R: 1.1 g
  KIDNEY_TOTAL: 2.2 g
  LIVER: 11.6 g
  ALP: 1517 IU/L
  ALT: 42.4 IU/L
  AST: 69.8 IU/L
  BUN: 15 mg/dL
  CRE: 0.2 mg/dL
  DBIL: 0.014 mg/dL
  GLC: 186.2 mg/dL
  IP: 7.4 mg/dL
  K: 4 meq/L
  LDH: 64.2 IU/L
  Na: 143.4 meq/L
  PL: 160.8 mg/dL
  RALB: 2.7 g/dL
  TBIL: 0.026 mg/dL
  TC: 87.6 mg/dL
  TG: 116.6 mg/dL
  TP: 5.9 g/dL
  gamma-GTP: 1.2 IU/L
[3]
  TERMINAL_BW: 288.7 g
  APTT: 17.4 s
  Bas: 0%
  Eos: 1%
  Fbg: 315.6 mg/dL
  Hb: 14.1 g/dL
  Ht: 40.9%
  Lym: 73%
  MCH: 21.4 pg
  MCHC: 34.6%
  MCV: 61.9 fL
  Mono: 3.4%
  Neu: 22.2%
  PT: 12.8 s
  Plat: 114.7 x10_4/uL
  RBC: 661 x10_4/ul
  Ret: 5.1%
  WBC: 95.2 x10_2/uL
  KIDNEY_L: 1.1 g
  KIDNEY_R: 1.1 g
  KIDNEY_TOTAL: 2.2 g
  LIVER: 12.4 g
  ALP: 1674.4 IU/L
  ALT: 45 IU/L
  AST: 71.4 IU/L
  BUN: 15.4 mg/dL
  CRE: 0.2 mg/dL
  DBIL: 0.016 mg/dL
  GLC: 192.2 mg/dL
  K: 3.7 meq/L
  LDH: 59.2 IU/L
  Na: 143.2 meq/L
  PL: 163.2 mg/dL
  RALB: 2.7 g/dL
  TBIL: 0.024 mg/dL
  TC: 89.6 mg/dL
  TG: 117.2 mg/dL
  TP: 5.9 g/dL
  gamma-GTP: 1.2 IU/L
[4]
  TERMINAL_BW: 350.6 g
  APTT: 17.7 s
  Bas: 0%
  Eos: 0.8%
  Fbg: 291.6 mg/dL
  Hb: 14.5 g/dL
  Ht: 41.8%
  Lym: 76.4%
  MCH: 21.4 pg
  MCHC: 34.7%
  MCV: 61.5 fL
  Mono: 2.8%
  Neu: 19.6%
  PT: 12.9 s
  Plat: 104.8 x10_4/uL
  RBC: 679.2 x10_4/ul
  Ret: 4.4%
  WBC: 86.7 x10_2/uL
  KIDNEY_L: 1.3 g
  KIDNEY_R: 1.3 g
  KIDNEY_TOTAL: 2.6 g
  LIVER: 12.9 g
  ALP: 1374 IU/L
  ALT: 46.4 IU/L
  AST: 71.8 IU/L
  BUN: 17 mg/dL
  CRE: 0.2 mg/dL
  DBIL: 0.014 mg/dL
  GLC: 191.8 mg/dL
  IP: 8 mg/dL
  K: 3.8 meq/L
  LDH: 57.2 IU/L
  Na: 144.4 meq/L
  PL: 155.4 mg/dL
  RALB: 2.8 g/dL
  TBIL: 0.028 mg/dL
  TC: 76.8 mg/dL
  TG: 131.2 mg/dL
  TP: 6.1 g/dL
  gamma-GTP: 1.2 IU/L
[5]
  TERMINAL_BW: 411.6 g
  APTT: 17.8 s
  Bas: 0.4%
  Eos: 1.4%
  Fbg: 276.4 mg/dL
  Hb: 15.5 g/dL
  Ht: 44.6%
  Lym: 75.6%
  MCH: 19.7 pg
  MCHC: 34.6%
  MCV: 56.9 fL
  Mono: 2.6%
  Neu: 19.4%
  PT: 13.1 s
  Plat: 101.1 x10_4/uL
  RBC: 785.2 x10_4/ul
  Ret: 2.4%
  WBC: 108 x10_2/uL
  KIDNEY_L: 1.4 g
  KIDNEY_R: 1.4 g
  KIDNEY_TOTAL: 2.8 g
  LIVER: 15.8 g
  ALP: 1004.4 IU/L
  ALT: 48.8 IU/L
  AST: 70.4 IU/L
  BUN: 16.6 mg/dL
  CRE: 0.2 mg/dL
  DBIL: 0.018 mg/dL
  GLC: 179.2 mg/dL
  IP: 6.8 mg/dL
  K: 3.7 meq/L
  LDH: 70.6 IU/L
  Na: 143.2 meq/L
  PL: 151.4 mg/dL
  RALB: 2.9 g/dL
  TBIL: 0.038 mg/dL
  TC: 79.2 mg/dL
  TG: 118.2 mg/dL
